PubChem BioAssay (NCI)
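Results reflect a 48-hour exposure of cells in 96-well plates to compound at five concentrations. GI50 marks 50% less growth. TGI denotes the concentration required for complete inhibition of growth.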

Experiments:
Experiment in all cases: NCI anticancer screen, dose series, 48 h
LOX IMVI melanoma = test system: LOX IMVI melanoma
RXF 393 renal = test system: RXF 393 renal
HOP-62 NSCLC = test system: HOP-62 NSCLC
SNB-19 CNS = test system: SNB-19 CNS
HT29 colon = test system: HT29 colon
ACHN renal = test system: ACHN renal
SK-OV-3 ovarian = test system: SK-OV-3 ovarian
HL-60(TB) leukemia = test system: HL-60(TB) leukemia
MALME-3M melanoma = test system: MALME-3M melanoma

Compound	TGI (LOX IMVI melanoma)	TGI (RXF 393 renal)	TGI (HOP-62 NSCLC)	TGI (SNB-19 CNS)	TGI (HT29 colon)	TGI (ACHN renal)	TGI (SK-OV-3 ovarian)	TGI (HL-60(TB) leukemia)	TGI (MALME-3M melanoma)	GI50 (LOX IMVI melanoma)	GI50 (RXF 393 renal)	GI50 (HOP-62 NSCLC)	GI50 (SNB-19 CNS)	GI50 (HT29 colon)	GI50 (ACHN renal)	GI50 (SK-OV-3 ovarian)	GI50 (MALME-3M melanoma)	GI50 (HL-60(TB) leukemia)
CCCCCCCCCCCCCCCCc1c(C(=O)OC)nc(NC#N)[nH]c1=O	> 25 µM	> 25 µM	> 25 µM	> 25 µM	> 25 µM	> 25 µM	> 25 µM	> 25 µM	> 25 µM	–	–	–	–	–	–	–	–	–
C=C(C)CC(C(=O)O)c1ccc(C)cc1 (stereo not drawn)	> 100 µM	> 100 µM	> 100 µM	> 100 µM	> 100 µM	> 100 µM	–	–	> 100 µM	–	–	–	–	–	–	–	–	–
O=C1CCCc2ccc([N+](=O)[O-])c(O)c21	> 100 µM	> 100 µM	> 100 µM	> 100 µM	> 100 µM	> 100 µM	> 100 µM	> 100 µM	> 100 µM	–	–	–	–	–	–	–	–	–
Cn1cnc([N+](=O)[O-])c1Sc1n[nH]c(-c2ccc(Cl)cc2)n1	30.1 µM	26.5 µM	54.9 µM	51 µM	42.5 µM	41.7 µM	95.7 µM	–	26.4 µM	–	–	–	–	–	–	–	–	–
C=CCCn1nc(-c2ccccc2)oc1=O	> 100 µM	> 100 µM	> 100 µM	> 100 µM	> 100 µM	> 100 µM	> 100 µM	> 100 µM	> 100 µM	–	–	–	–	–	–	–	–	–
c1cc[c]([Ge]([O]c2cccc3cccnc23)([c]2ccccc2)[c]2ccccc2)cc1	13.2 µM	5.49 µM	25.6 µM	19.5 µM	10.8 µM	20.8 µM	8.56 µM	–	22.4 µM	3.92 µM	1.88 µM	12.7 µM	7.15 µM	3.8 µM	8.83 µM	3.3 µM	10.4 µM	–
C[C@]12Cc3conc3C(O)=C1CC[C@@H]1C2CC[C@@]2(C)C1CC[C@@H]2O (stereo partly drawn)	24.9 µM	44.9 µM	> 100 µM	> 100 µM	> 100 µM	> 100 µM	89 µM	10.7 µM	87.2 µM	–	–	–	–	–	–	–	–	–
COc1ccc(/C=C/c2onc3c(=O)n(C)nc(-c4ccccc4)c23)cc1	> 100 µM	> 100 µM	> 100 µM	> 100 µM	> 100 µM	> 100 µM	> 100 µM	> 100 µM	–	–	–	–	–	–	–	–	–	–
NC1=NN(c2ccccc2)C(=O)C1C(=O)C(=O)Nc1ccccc1 (stereo not drawn)	> 100 µM	–	> 100 µM	> 100 µM	> 100 µM	> 100 µM	> 100 µM	> 100 µM	> 100 µM	–	–	–	–	–	–	–	–	–
CC1OC(n2cc(F)c(=O)[nH]c2=O)CCC1=O (stereo not drawn)	> 100 µM	> 100 µM	> 100 µM	> 100 µM	> 100 µM	> 100 µM	> 100 µM	> 100 µM	> 100 µM	–	–	–	–	–	–	–	–	–
N#CC(Sc1ccccc1)C(N)=O (stereo not drawn)	> 100 µM	> 100 µM	> 100 µM	> 100 µM	> 100 µM	–	> 100 µM	> 100 µM	> 100 µM	–	–	–	–	–	–	–	–	–
O=CCCn1[nH]c(=O)ccc1=O	> 100 µM	> 100 µM	–	> 100 µM	> 100 µM	> 100 µM	–	> 100 µM	> 100 µM	–	–	–	–	–	–	–	–	–
O=C(O)c1cnc2c(ccc3[nH]cccc32)c1=O	> 100 µM	> 100 µM	> 100 µM	> 100 µM	> 100 µM	> 100 µM	> 100 µM	> 100 µM	> 100 µM	–	–	–	–	–	–	–	–	–
CC(=O)N1c2ccccc2N(C(C)=O)C1c1ccc(C2N(C(C)=O)c3ccccc3N2C(C)=O)[nH]1	> 100 µM	> 100 µM	> 100 µM	> 100 µM	> 100 µM	–	> 100 µM	> 100 µM	> 100 µM	–	–	–	–	–	–	–	–	–
C[C@@H]1CC[C@@]2(C)OC(c3ccccc3)[C@H](CO)N2C1=O (stereo partly drawn)	> 100 µM	> 100 µM	> 100 µM	> 100 µM	> 100 µM	> 100 µM	–	–	> 100 µM	–	–	–	–	–	–	–	–	–
O/N=C1/CCCC/C1=C\c1ccc(Cl)c(Cl)c1	42.9 µM	–	> 100 µM	91.6 µM	39.9 µM	71.8 µM	86.9 µM	23 µM	–	–	–	–	–	–	–	–	–	–
COC(=O)c1c2c(c(C)[n+]([O-])c1C)C(=O)C(NCc1ccccc1)=CC2=O	10.2 µM	7.88 µM	17.9 µM	11.2 µM	10.2 µM	10.1 µM	9.63 µM	–	1.88 µM	2.72 µM	2.48 µM	3.1 µM	3.25 µM	1.97 µM	2.73 µM	2.81 µM	0.617 µM	–
Clc1ccc(-c2cnc3c(-c4ccnc(N5CCNCC5)c4)cnn3c2)cc1	3.48 µM	3.72 µM	3.38 µM	4.03 µM	2.53 µM	–	5.63 µM	3.26 µM	3.31 µM	1.91 µM	2.09 µM	1.92 µM	2.02 µM	1.24 µM	–	2.72 µM	1.86 µM	1.25 µM
COc1ccc(C2(Cl)C(Cl)(C(F)(F)F)C2(Cl)C(F)(F)F)cc1 (stereo not drawn)	20.5 µM	24.6 µM	32.5 µM	29.1 µM	27.8 µM	30.4 µM	31.2 µM	54.9 µM	–	–	–	–	–	–	–	–	–	–
